The assay has as its system HeLa cells. Kind of assay: In vitro drug assay: scAAV2-EGFP transduction after pre-treatment with Neddylation inhibitor. It is filed as cell-based. To be noted: versus control cells. As to the method:
Approximately 3×10^4 HeLa cells were seeded in 24 well plate and incubated for 12 hours in Iscove's-modified Dulbecco's medium (IMDM) with 10% fetal bovine serum in humidified conditions and 5% CO2. Cells were either mock treated or treated with a Neddylation inhibitor, MLN4924 (Calbiochem, Merck, Kenilworth, USA) at a concentration of 1 μM and incubated at 37° C. for 3 hours. After incubation, cells were infected with scAAV2-EGFP vectors at a multiplicity of infection (MOI) of 5000 for 3 hours in IMDM at 37° C. Forty-eight hours later, the transgene (GFP) expression was quantified by flow cytometry (BDaccuri, BD Biosciences, Franklin Lakes, USA).
To determine the role of cellular Neddylation during AAV2 infection, a small molecular inhibitor of Neddylation being used herein, MLN4924. The MLN4924 prevents the formation of the NEDD8 and Neddylation activating enzyme (NAE1) protein complex. The HeLa cells were pre-treated for three hours, after which the HeLa cells were infected with scAAV2-EGFP. […] Further studies such as specific targeting of Neddylation pathway genes by RNA interference are warranted to understand the mechanism involved in this process. […] Forty-eight hours later, the transgene (GFP) expression was quantified by flow cytometry. […]

SMILES strings stand for the structures.

In the case of `NS(=O)(=O)OC[C@@H]1C[C@@H](n2ccc3c(N[C@H]4CCc5ccccc54)ncnc32)C[C@@H]1O` [MLN4924], the “improvement of AAV transduction by Neddylation inhibition” value was 50%.

The values are drawn from patent publication US12723261B2, “Process for producing a plurality of Neddylation site modified AAV2 vectors” (INDIAN INSTITUTE OF […], priority 2018, dated 2026).
